Data taken from patent US5686486A, “4-hydroxy-benzopyran-2-ones and 4-hydroxy-cycloalkyl[b]pyran-2-ones useful to treat retroviral infections” (priority 1995, dated 1997).
Like-named read-outs stand apart in the source and are kept apart here.

Biological target: HIV-1 protease (Human immunodeficiency virus type 1 group M subtype B, UniProt P04585)
Test: biochemical
In short: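 Percent inhibition derived from fluorescent cleavage product separated by filtration after streptavidin-bead capture of intact biotin/FITC substrate. Reaction: enzyme (10 μl, 0.1 μM stock) with substrate (20 μl, 0.2 μM stock) and compound, 1 h at room temperature in dark, pH 5.5 acetate buffer with 1.0 M NaCl and 0.05% NP-40.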

[1] = read-out: HIV-1 Protease % Inhib, dose 0.123 uM
[2] = read-out: HIV-1 Protease % Inhib, dose 0.370 uM
[3] = read-out: HIV-1 Protease % Inhib, dose 1.100 uM
[4] = read-out: HIV-1 Protease % Inhib, dose 3.300 uM
[5] = read-out: HIV-1 Protease % Inhib, dose 10.000 uM
[6] = read-out: HIV-1 Protease % Inhib, dose 30.000 uM
[7] = dose 1.100 uM, read-out: HIV-1 Protease % Inhib
[8] = dose 3.300 uM, read-out: HIV-1 Protease % Inhib
[9] = dose 10.000 uM, read-out: HIV-1 Protease % Inhib
[10] = dose 30.000 uM, read-out: HIV-1 Protease % Inhib
[11] = dose 0.370 uM, read-out: HIV-1 Protease % Inhib

Row | SMILES | inhibition at 1.1 µM [7] | inhibition at 3.3 µM [8] | inhibition at 10 µM [9] | inhibition at 30 µM [10] | inhibition at 0.123 µM [1] | inhibition at 0.37 µM [2] | inhibition at 1.1 µM [3] | inhibition at 3.3 µM [4] | inhibition at 10 µM [5] | inhibition at 30 µM [6] | inhibition at 0.123 µM (dose 0.123 uM, read-out: HIV-1 Protease % Inhib) | inhibition at 0.37 µM [11]
1 | COc1ccc(S(=O)(=O)Nc2cccc(C(c3c(O)c4c(oc3=O)CCCCCC4)C3CC3)c2)cc1OC (stereo not drawn) [Example 335, N-[3-[Cyclopropyl(5,6,7,8,9,10-hexahydro-4-hydroxy-2-oxo-2H-cycloocta[b]pyran-3-yl)methyl]phenyl]-3,4-dimethoxy-benzenesulfonamide] | – | – | – | – | 48.7% | 82.9% | 90.3% | 96.8% | 96.5% | 106% | – | –
2 | Cc1cccc(S(=O)(=O)Nc2cccc(C(c3c(O)c4c(oc3=O)CCCCCC4)C3CC3)c2)c1 (stereo not drawn) [Example 336, N-[3-[Cyclopropyl(5,6,7,8,9,10-hexahydro-4-hydroxy-2-oxo-2H-cycloocta[b]pyran-3-yl)methyl]phenyl]-3-methyl-benzenesulfonamide] | – | – | – | – | 73.5% | 87.3% | 93% | 94.6% | 103% | 108% | – | –
3 | N#Cc1ccccc1S(=O)(=O)Nc1cccc(C(c2c(O)c3c(oc2=O)CCCCCC3)C2CC2)c1 (stereo not drawn) [Example 339, 2-Cyano-N-[3-[cyclopropyl(5,6,7,8,9,10-hexahydro-4-hydroxy-2-oxo-2H-cycloocta[b]pyran-3-yl)methyl]phenyl]-benzenesulfonamide] | – | – | – | – | 53.5% | 81.3% | 94.9% | 99.2% | 105% | 99.8% | – | –
4 | CCCc1ccc(S(=O)(=O)Nc2cccc(C(c3c(O)c4c(oc3=O)CCCCCC4)C3CC3)c2)cc1 (stereo not drawn) [Example 342, N-[3-[Cyclopropyl(5,6,7,8,9,10-hexahydro-4-hydroxy-2-oxo-2H-cycloocta[b]pyran-3-yl)methyl]phenyl]4-propyl-benzenesulfonamide] | – | – | – | – | 42% | 72.9% | 88.2% | 87.8% | 108% | 105% | – | –
5 | CCCCCCCCCCCCS(=O)(=O)Nc1cccc(C(c2c(O)c3c(oc2=O)CCCCCC3)C2CC2)c1 (stereo not drawn) [Example 344, N-[3-[Cyclopropyl(5,6,7,8,9,10-hexahydro-4-hydroxy-2-oxo-2H-cycloocta[b]pyran-3-yl)methyl]phenyl]-1-dodecanesulfonamide] | 11.8% | 32.7% | 63.2% | 81.8% | – | – | – | – | – | – | – | –
6 | CC(C)c1ccc(S(=O)(=O)Nc2cccc(C(c3c(O)c4c(oc3=O)CCCCCC4)C3CC3)c2)cc1 (stereo not drawn) [Example 345, N-[3-[Cyclopropyl(5,6,7,8,9,10-hexahydro-4-hydroxy-2-oxo-2H-cycloocta[b]pyran-3-yl)methyl]phenyl]-4-(1-methylethyl)-benzenesulfonamide] | – | – | – | – | 50% | 77% | 90.4% | 101% | 105% | 91.8% | – | –
7 | Nc1ccc(S(=O)(=O)Nc2cccc(C(c3c(O)c4c(oc3=O)CCCCCC4)C3CC3)c2)cc1 (stereo not drawn) [Example 348 (First Title Compound), 4-Amino-N-[3-[cyclopropyl(5,6,7,8,9,10-hexahydro-4-hydroxy-2-oxo-2H-cycloocta[b]pyran-3-yl)methyl]phenyl]-benzenesulfonamide] | – | – | – | – | 28.1% | 80.7% | 103% | 108% | 113% | 109% | – | –
8 | C=CS(=O)(=O)Nc1cccc(C(c2c(O)c3c(oc2=O)CCCCC3)C2CC2)c1 (stereo not drawn) [Example 363, N-[3-[Cyclopropyl(2,5,6,7,8,9-hexahydro-4-hydroxy-2-oxocyclohepta[b]pyran-3-yl)methyl]phenyl]-ethenesulfonamide] | 21.5% | 58.8% | 84.8% | 107% | – | – | – | – | – | – | – | –
9 | CCS(=O)(=O)Nc1cccc(C(c2c(O)c3c(oc2=O)CCCCC3)C2CC2)c1 (stereo not drawn) [Example 365, N-[3-[Cyclopropyl(2,5,6,7,8,9-hexahydro-4-hydroxy-2-oxocyclohepta[b]pyran-3-yl)methyl]phenyl]-ethanesulfonamide] | – | – | – | – | 11.7% | 31.1% | 65.3% | 84.1% | 94.5% | 95.8% | – | –
10 | O=c1oc2c(c(O)c1C(c1cccc(N3CCCS3(=O)=O)c1)C1CC1)CCCCCC2 [Example 365B (First Title Compound), 2H-Cycloocta[b]pyran-2-one, 3-[cyclopropyl[3-(2-isothiazolidinyl)phenyl]methyl]-5,6,7,8,9,10-hexahydro-4-hydroxy-,S,S-dioxide] | – | – | 83.8% | 78.8% | – | – | – | – | – | – | – | –
11 | O=c1oc2c(c(O)c1C(c1cccc(NS(=O)(=O)CCCN3CCOCC3)c1)C1CC1)CCCCCC2 (stereo not drawn) [Example 365B (Second Title Compound), N-[3-[Cyclopropyl(5,6,7,8,9,10-hexahydro-4-hydroxy-2-oxo-2H-cycloocta[b]pyran-3-yl)methyl]phenyl]-4-morpholinepropanesulfonamide] | 94% | 87.3% | 92.6% | 89.1% | – | – | – | – | – | – | 33.2% | 68.2%
12 | O=c1oc2c(c(O)c1C(c1cccc(NC(=S)Nc3ccccc3)c1)C1CC1)CCCCCC2 (stereo not drawn) [Example 366, Thiourea, N-[3-[cyclopropyl(5,6,7,8,9,10-hexahydro-4-hydroxy-2-oxo-2H-cycloocta[b]pyran-3-yl)methyl]phenyl]-N'-phenyl-] | 40.3% | 72.9% | 92.2% | 107% | – | – | – | – | – | – | – | –
13 | CCNC(=S)Nc1cccc(C(c2c(O)c3c(oc2=O)CCCCCC3)C2CC2)c1 (stereo not drawn) [Example 367, Thiourea, N-[3-[cyclopropyl(5,6,7,8,9,10-hexahydro-4-hydroxy-2-oxo-2H-cycloocta[b]pyran-3-yl)methyl]phenyl]-N'-ethyl-] | 23.7% | 58.5% | 86.1% | 102% | – | – | – | – | – | – | – | –
14 | O=c1oc2c(c(O)c1C(c1cccc(NC(=S)Cc3ccccc3)c1)C1CC1)CCCCCC2 (stereo not drawn) [Example 368, Benzeneethanethioamide, N-[3-[cyclopropyl(5,6,7,8,9,10-hexahydro-4-hydroxy-2-oxo-2H-cycloocta[b]pyran-3-yl)methyl]phenyl]-] | 17.4% | 54.5% | 77.8% | 86.8% | – | – | – | – | – | – | – | –
15 | CC(C)C(c1cccc(NC(=O)OCc2ccccc2)c1)c1c(O)c2c(oc1=O)CCCCCC2 (stereo not drawn) [Example 370, [3-[1-(5,6,7,8,9,10-Hexahydro-4-hydroxy-2-oxo-2H-cycloocta[b]pyran-3-yl)-2-methylpropyl]phenyl]-carbamic acid, phenylmethyl ester] | – | – | 19.4% | 33.1% | – | – | – | – | – | – | – | –
16 | CC(C)C(c1cccc(NS(=O)(=O)c2ccc(C#N)cc2)c1)c1c(O)c2c(oc1=O)CCCCCC2 (stereo not drawn) [Example 372, 4-Cyano-N-[3-[1-(6,7,8,9,10-hexahydro-4-hydroxy-2-oxo-2H-cycloocta[b]pyran-3-yl)-2-methylpropyl]phenyl]-benzenesulfonamide] | – | – | – | – | 65.3% | 91.3% | 105% | 108% | 109% | 106% | – | –

The next lines start with results.

Row | inhibition at 1.1 µM [7] | inhibition at 3.3 µM [8] | inhibition at 10 µM [9] | inhibition at 30 µM [10] | SMILES | inhibition at 0.123 µM [1] | inhibition at 0.37 µM [2] | inhibition at 1.1 µM [3] | inhibition at 3.3 µM [4] | inhibition at 10 µM [5] | inhibition at 30 µM [6] | inhibition at 0.123 µM (dose 0.123 uM, read-out: HIV-1 Protease % Inhib) | inhibition at 0.37 µM [11]
17 | 28.5% | 57.4% | 79% | 86% | CCCC(c1cccc(NC(=O)OCc2ccccc2)c1)c1c(O)c2c(oc1=O)CCCCCC2 (stereo not drawn) [Example 375, [3-[1-(5,6,7,8,9,10-Hexahydro-4-hydroxy-2-oxo-2H-cycloocta[b]pyran-3-yl)butyl]phenyl]-carbamic acid, phenylmethyl ester] | – | – | – | – | – | – | – | 10.2%
18 | 28.9% | 73% | 90.2% | 94.6% | O=c1oc2c(c(O)c1C(c1ccc(CO)o1)C1CC1)CCCCCC2 (stereo not drawn) [Example 383] | – | – | – | – | – | – | – | –
19 | 14.3% | 35.4% | 64.5% | 96.3% | COCOCc1ccc(C(c2c(O)c3c(oc2=O)CCCCCC3)C2CC2)o1 (stereo not drawn) [Example 386] | – | – | – | – | – | – | – | –
20 | 13.1% | 43.6% | 66.4% | 85.2% | O=c1oc2c(c(O)c1C(c1ccc(CNS(=O)(=O)c3ccc(F)cc3)o1)C1CC1)CCCCCC2 (stereo not drawn) [Example 390] | – | – | – | – | – | – | – | –
21 | – | 28.3% | 59.1% | 84.2% | N#Cc1ccc(S(=O)(=O)NCc2ccc(C(c3c(O)c4c(oc3=O)CCCCCC4)C3CC3)o2)cc1 (stereo not drawn) [Example 391] | – | – | – | – | – | – | – | –
22 | 11.5% | 47% | 77.6% | 99.7% | N#Cc1ccc(S(=O)(=O)NCc2ccc(C(c3c(O)c4c(oc3=O)CCCCCC4)C3CC3)s2)cc1 (stereo not drawn) [Example 392] | – | – | – | – | – | – | – | –
23 | – | 37.5% | 66.3% | 89.8% | O=c1oc2c(c(O)c1C(c1ccc(CNS(=O)(=O)c3ccc(F)cc3)s1)C1CC1)CCCCCC2 (stereo not drawn) [Example 393] | – | – | – | – | – | – | – | –
